Laboratory results: patent US8604059B2, “Thioxanthene derivatives for the treatment of infectious diseases” (BKG Pharma APS, priority 2009, dated 2013)
In brackets after ≈: the same amount, converted by molar mass. Where two headings read alike, the source gives them in different places.

Tests used:
[1] = system: Multiresistant clinical isolates of S. aureus and S. epidermidis; assay: Maximal reversal of resistance and synergistic effect (Table 4b); type: cell-based; conditions: for MIC: antibiotic alone, median, ten strains in each group; for Fold enhanced, compound 1 0.60 ug/ml: enhancement of antibiotic by compound 1 at 0.60 ug/ml; for Fold enhanced, compound 2 0.98 ug/ml: enhancement of antibiotic by compound 2 at 0.98 ug/ml; for Fold enhanced, compound 3 0.30 ug/ml: enhancement of antibiotic by compound 3 at 0.30 ug/ml; for Fold enhanced, compound 4 0.75 ug/ml: enhancement of antibiotic by compound 4 at 0.75 ug/ml
Method: (§1) The maximal obtained reversal of resistance and synergistic effect was tested as previously described.
Strains: Multiresistant clinical isolates of S. aureus and S. epidermidis, Ten strains in each group.

[2] = system: Multiresistant clinical isolates E. coli; assay: Maximal reversal of resistance and synergistic effect (Table 4c); type: cell-based
Method: as §1
Strains: Multiresistant clinical isolates E. coli, Ten strains in each group.

S. aureus = assay: MIC, microdilution broth, multiresistant clinical isolates (Table 1A); type: cell-based; conditions: Staphylococcus aureus; ten multiresistant clinical isolates; read-out: Median MIC S. aureus
Method: (§2) Cell growth was tested using the Minimal Inhibitory Concentration (MIC) susceptibility tests by use of the microdilution broth method in accordance to the NCCLS Guidelines (NCCLS Guidelines, Methods for Dilution Antimicrobial Susceptibility Tests for Bacteria That Grow Aerobically; Approved Standard, Sixth Edition, Volume 23; Number 2). The minimum inhibitory concentration (MIC), is defined as the lowest concentration of drug which inhibits growth of the test organism, in the sense that no visible growth is detected (total inhibition of growth). In example 2, MIC of the compounds used on fungal microorgansims was determined from the IC90 measurements according to NCCLS Guidelines.
(§3) A log phase culture of bacteria was diluted with fresh pre-warmed Mueller-Hinton medium and adjusted to a defined OD at 600 nm in order to give a final concentration of 1×10^4-5 bacteria/ml medium. The bacterial culture was transferred to microtiter-plates and culture was added to each well. […] Trays were incubated at 37° C. by shaking in a robot analyzer, PowerWavex, software KC^4′ Kebo. Lab, Copenhagen, for 16 h and optical densities were measured at 600 nm during the incubation time in order to record growth curves. Wells containing bacterial culture without drug were used as controls to ensure correct inoculum size and bacterial growth during the incubation. Cultures were tested in order to detect contaminations. Each experiment was repeated in triplicate.
(§4) Ten strains in each test group.

E. coli = assay: as above; type: cell-based; conditions: Escherichia coli; ten multiresistant clinical isolates; read-out: Median MIC E. coli
Method: as §2, §3, §4

E. faecalis = assay: as above; type: cell-based; conditions: Enterococcus faecalis; ten multiresistant clinical isolates; read-out: Median MIC E. faecalis
Method: as §2, §3, §4

E. faecium = assay: as above; type: cell-based; conditions: Enterococcus faecium; ten multiresistant clinical isolates; read-out: Median MIC E. faecium
Method: as §2, §3, §4

S. epidermidis = assay: as above; type: cell-based; conditions: Staphylococcus epidermidis; ten multiresistant clinical isolates; read-out: Median MIC S. epidermidis
Method: as §2, §3, §4

[3] = system: E. faecalis MDR/VRE clinical isolates; assay: FIC index, synergy with antibiotics (Table 4a); type: cell-based, Enterococcus faecalis; conditions: 8 MDR/VRE E. faecalis, mean, compound at ¼ of MIC
Method: (§5) The effect of the compounds was tested according to the methods described in WO2005/105145. In brief, cell growth was tested using the MIC susceptibility tests by use of the microdilution broth method in accordance to the NCCLS Guidelines (NCCLS Guidelines, Methods for Dilution Antimicrobial Susceptibility Tests for Bacteria That Grow Aerobically; Approved Standard, Sixth Edition, Volume 23; Number 2).
(§6) The Fractional Inhibitory Concentration (FIC) index were calculated for each compound as described in WO2005/105145. Synergy was defined for Fractional Inhibitory Concentration (FIC) indices less than 0.5
Enterococcus faecalis: 8 multidrug resistant in vivo-selected clinical isolates. […] Expressing change in the cell wall precursor target as a major resistance mechanism (VanA gene expression).

[4] = system: E. coli MDR clinical isolates; assay: FIC index, synergy with antibiotics (Table 4a); type: cell-based; conditions: 8 MDR E. coli, mean, compound at ¼ of MIC
Method: as §5, §6
E. coli: 8 in vivo-selected multidrug resistant clinical isolates of E. coli. Resistant to tetracycline, beta-lactams, fluoroquinolones, chloramphenicol and aminoglycoside

[5] = system: S. aureus MRSA clinical isolates; assay: FIC index, synergy with antibiotics (Table 4a); type: cell-based, Staphylococcus aureus; conditions: with Dicloxacillin; 8 MRSA; mean; compound at ¼ of MIC
Method: as §5, §6
Staphylococcus aureus: 8 (MRSA) in vivo-selected clinical isolates. Resistant to methicillin and beta-lactam antibiotics. Susceptible to teicoplanin chloramphenicol, fosfomycin, netilmicin and vancomycin.

Candida albicans = assay: Synergy with fluconazole, broth microdilution NCCLS M27-A (Table 10); type: cell-based; conditions: Candida albicans
Method: The isolates were subcultured for 24 h on Sabouraud glucose agar before susceptibility testing. Broth microdilution tests were performed according to NCCLS document M27-A (Ref: National Commitee for Clinical Laboratory Standards. (1997). Reference Method for Broth Dilution Antifungal Susceptibility Testing of Yeasts: Approved Standard M27-A. NCCLS, Wayne, Pa.) Microtitre plates were read spectrophotometrically at 530 nm, after mixing the wells by pipetting to resuspend yeast sediments. […] The Fractional Inhibitory Concentration (FIC) was calculated for the anti-infective agent alone and in combination with compound 3 and 4 (see table 4) as described above. Synergy was defined as a FIC index of <0.5.

## CC1(C)S[C@@H]2[C@H](NC(=O)[C@H](N)c3ccccc3)C(=O)N2[C@H]1C(=O)O [Ampicillin]
[1]
  MIC: 16 µg/mL
  Fold enhanced, compound 1 0.60 ug/ml: 4 (4)
  Fold enhanced, compound 2 0.98 ug/ml: 4 (4)
  Fold enhanced, compound 3 0.30 ug/ml: 8
  Fold enhanced, compound 4 0.75 ug/ml: 4 (4)
[2]; Escherichia coli, antibiotic alone, median, ten strains
  MIC: 32 µg/mL
[2]; enhancement of antibiotic by compound 1 at 1.0 ug/ml
  Fold enhanced, compound 1 1.0 ug/ml: 8
[2]; enhancement of antibiotic by compound 2 at 2.0 ug/ml
  Fold enhanced, compound 2 2.0 ug/ml: 4
[2]; enhancement of antibiotic by compound 3 at 0.6 ug/ml
  Fold enhanced, compound 3 0.6 ug/ml: 16

## CC1(C)S[C@@H]2[C@H](NC(=O)Cc3ccccc3)C(=O)N2[C@H]1C(=O)O [Benzylpenicillin]
[1]
  MIC: 64 µg/mL
  Fold enhanced, compound 1 0.60 ug/ml: 8 (8)
  Fold enhanced, compound 2 0.98 ug/ml: 8 (8)
  Fold enhanced, compound 3 0.30 ug/ml: 16
  Fold enhanced, compound 4 0.75 ug/ml: 8 (8)

## Clc1ccc2c(c1)/C(=C/CCN1CCNCC1)c1ccccc1S2 [Compound 1, N-dealkyl-transclopenthixol]
S. aureus
  MIC: 3.6 µg/mL (≈ 10.1 µM)
E. coli
  MIC: 6 µg/mL (≈ 16.8 µM)
E. faecalis
  MIC: 0.6 µg/mL (≈ 1.68 µM)
E. faecium
  MIC: 0.6 µg/mL (≈ 1.68 µM)
S. epidermidis
  MIC: 2.4 µg/mL (≈ 6.72 µM)
[3]; with Ciprofloxacin
  FIC index: 0.28
[3]; with Dicloxacillin
  FIC index: 0.28
[4]; with Ampicillin
  FIC index: 0.47
[4]; with Ciprofloxacin
  FIC index: 0.47
[4]; with Gentamycin
  FIC index: 0.47
[4]; with Tetracycline
  FIC index: 0.47
[5]
  FIC index: 0.28
[2]; E. coli multiresistant isolates
  Maximal reversal of resistance: concentration of compound: 1.0 µg/mL

## CC[C@H]1OC(=O)[C@H](C)[C@@H](O[C@H]2C[C@@](C)(OC)[C@@H](O)[C@H](C)O2)[C@H](C)[C@@H](O[C@@H]2O[C@H](C)C[C@H](N(C)C)[C@H]2O)[C@](C)(O)C[C@@H](C)C(=O)[C@H](C)[C@@H](O)[C@]1(C)O [Erythromycin]
[1]
  MIC: 16 µg/mL
  Fold enhanced, compound 1 0.60 ug/ml: 4 (4)
  Fold enhanced, compound 2 0.98 ug/ml: 4 (4)
  Fold enhanced, compound 3 0.30 ug/ml: 8
  Fold enhanced, compound 4 0.75 ug/ml: 4 (4)

## OC(Cn1cncn1)(Cn1cncn1)c1ccc(F)cc1F [Fluconazole]
Candida albicans; Table 10A, fluconazole in presence of compound 3 at 0.25 μg/ml, read-out: MIC FL + comp 3 (0.25 μg/m1)
  MIC: 4 µg/mL
Candida albicans; Table 10B (compound 4), fluconazole in presence of compound at 0.50 μg/ml, read-out: MIC FL + comp 3 (0.50 μg/ml)
  MIC: 8 µg/mL
Candida albicans; read-out: MIC Fluconazole (FL)
  MIC: 128 µg/mL
